experiment: Inhibition of clostridium perfringens neuraminidase using fluorescent substrate preincubated for 2 mins followed by substrate addition and measured after 1 hr by fluorescence based microplate reader analysis

Structure (SMILES)	IC50
O=C(NCCCN1CCOCC1)C(=O)N/N=C/c1cccc(COc2ccc(Cl)cc2)c1	6.2 µM
O=C(NCCCN1CCOCC1)C(=O)N/N=C/c1cccc(COc2ccc([N+](=O)[O-])cc2)c1	27.8 µM
COc1ccc(Br)cc1OCc1cccc(/C=N/NC(=O)C(=O)NCCCN2CCOCC2)c1	7.31 µM
CCC(CC)O[C@@H]1C=C(C(=O)O)C[C@H](N)[C@H]1NC(C)=O [OSELTAMIVIR CARBOXYLATE]	17 µM
O=C(NCCCN1CCOCC1)C(=O)N/N=C/c1cccc(COc2cc(F)ccc2[N+](=O)[O-])c1	17.8 µM
O=C(NCCCN1CCOCC1)C(=O)N/N=C/c1cccc(COc2ccccc2F)c1	21.6 µM
O=C(NCCCN1CCOCC1)C(=O)N/N=C/c1cccc(COc2ccccc2[N+](=O)[O-])c1	86 µM
O=C(NCCCN1CCOCC1)C(=O)N/N=C/c1cccc(COc2ccc(F)cc2)c1	5.29 µM
COc1cc([N+](=O)[O-])ccc1OCc1cccc(/C=N/NC(=O)C(=O)NCCCN2CCOCC2)c1	28.4 µM
O=C(NCCCN1CCOCC1)C(=O)N/N=C/c1cccc(COc2ccccc2Cl)c1	20.4 µM
COc1ccc(OCc2cccc(/C=N/NC(=O)C(=O)NCCCN3CCOCC3)c2)cc1	0.6 µM
O=C(NCCCN1CCOCC1)C(=O)N/N=C/c1cccc(COc2cccc(Cl)c2)c1	22.1 µM
CC(=O)Nc1ccc(OCc2cccc(/C=N/NC(=O)C(=O)NCCCN3CCOCC3)c2)cc1	73.4 µM
COc1ccccc1OCc1cccc(/C=N/NC(=O)C(=O)NCCCN2CCOCC2)c1	47.8 µM
COc1cccc(OCc2cccc(/C=N/NC(=O)C(=O)NCCCN3CCOCC3)c2)c1	13.6 µM

Source: ChEMBL document CHEMBL4619827, “Design, Synthesis, and Biological Evaluation of Novel Acylhydrazone Derivatives as Potent Neuraminidase Inhibitors” (ACS Med Chem Lett, 2020)
